Results from patent US20150224066A1 (priority 2012, published 2015).
Values joined by “and” are separate entries in the source; they are usually repeats but may differ in a detail not shown here. Equal entries are not always repeated. “Also recorded” adds a separate entry of the source. Where two headings read alike, the source gives them in different places.

How the values were obtained:
B. anthracis Sterne = assay type: cell-based, Bacillus anthracis; conditions: for antimicrobial activity / growth inhibition: 24 h incubation; for bactericidal concentration / bacteriostatic concentration: 24 h
[1] = test system: Streptococcus agalactiae MNSI; assay type: cell-based
S. aureus MN8 [2] = assay type: cell-based, Staphylococcus aureus
[3] = test system: Streptococcus pyogenes MNWA; assay type: cell-based
S. aureus MN8 [4] = assay type: cell-based, Staphylococcus aureus; remark: listed apart in the source
[5] = test system: TSST-1 production by S. aureus CDC587; assay type: cell-based, Staphylococcus aureus
[6] = test system: TSST-1 production by S. aureus MN8; assay type: cell-based, Staphylococcus aureus
[7] = test system: TSST-1 production by S. aureus MNPE; assay type: cell-based, Staphylococcus aureus
S. aureus MNPE = assay type: cell-based, Staphylococcus aureus
S. aureus = assay type: cell-based, Staphylococcus aureus
S. aureus CDC587 = assay type: cell-based, Staphylococcus aureus
S. aureus MN8 [8] = assay type: cell-based, Staphylococcus aureus; remark: listed apart in the source

O=C1C=CC(=O)c2ccccc21 [1,4-naphthoquinone]
fold less active than menadione (B. anthracis Sterne): approximately 2 fold | antimicrobial activity / growth inhibition (B. anthracis Sterne): strong antimicrobial activity | antimicrobial activity / growth inhibition [1]: strong antimicrobial activity | fold less active than menadione [1]: approximately 2 fold | antimicrobial activity / growth inhibition (S. aureus MN8 [2]): strong antimicrobial activity | fold less active than menadione (S. aureus MN8 [2]): approximately 2 fold | antimicrobial activity / growth inhibition [3]: strong antimicrobial activity | fold less active than menadione [3]: approximately 2 fold

CCCCCCCCCCCC(=O)OCC(O)CO (stereo not drawn) [GML, glycerol monolaurate]
growth inhibition of S. aureus MN8 (S. aureus MN8 [4]): did not inhibit; also recorded: not inhibitory

COC1=C(OC)C(=O)C(C/C=C(\C)CCC=C(C)C)=C(C)C1=O [coenzyme Q2]
bactericidal concentration (B. anthracis Sterne): ≥ 25 µg/mL | bacteriostatic concentration (B. anthracis Sterne): 12.5 µg/mL | bactericidal concentration (≧3 log drop in CFUs/ml) (S. aureus MN8 [2]): 50 μg/ml | bacteriostatic concentration (<3 log drop in CFUs/ml) (S. aureus MN8 [2]): 25 μg/ml

COC1=C(OC)C(=O)C(C/C=C(\C)CC/C=C(\C)CCC=C(C)C)=C(C)C1=O [coenzyme Q3]
bactericidal concentration (B. anthracis Sterne): 50 µg/mL | bacteriostatic concentration (B. anthracis Sterne): 25 µg/mL | bactericidal concentration (≧3 log drop in CFUs/ml) (S. aureus MN8 [2]): 50 μg/ml | bacteriostatic concentration (<3 log drop in CFUs/ml) (S. aureus MN8 [2]): 25 μg/ml

COC1=C(OC)C(=O)C(C/C=C(\C)CC/C=C(\C)CC/C=C(\C)CC/C=C(\C)CC/C=C(\C)CC/C=C(\C)CC/C=C(\C)CC/C=C(\C)CC/C=C(\C)CCC=C(C)C)=C(C)C1=O [coenzyme Q10, reference compound]
antimicrobial activity / growth inhibition (B. anthracis Sterne): no antimicrobial activity | inhibition of TSST-1 production [5]: did not inhibit | inhibition of TSST-1 production [6]: did not inhibit | antimicrobial activity / growth inhibition [1]: lacked antimicrobial activity | inhibition of TSST-1 production [7]: did not inhibit | antimicrobial activity / growth inhibition (S. aureus MN8 [2]): no antimicrobial activity | antimicrobial activity / growth inhibition [3]: lacked antimicrobial activity

CC1=CC(=O)c2ccccc2C1=O [menadione]
bactericidal concentration (B. anthracis Sterne): ≥ 25 µg/mL | bacteriostatic concentration (B. anthracis Sterne): 6.25 µg/mL and 12.5 µg/mL | antimicrobial activity / growth inhibition (B. anthracis Sterne): strong antimicrobial activity | antimicrobial activity / growth inhibition (B. anthracis Sterne; listed as Menadione): inhibits the growth | concentration at which TSST-1 production was completely inhibited (no detectable TSST-1) [6]: ≥ 3.1 µg/mL | doses that failed to inhibit TSST-1 production [6]: < 3.1 µg/mL | antimicrobial activity / growth inhibition [1]: inhibits the growth; also recorded: strong antimicrobial activity | bacteriostatic concentration [1]: 6.25 mg/mL and 12.5 mg/mL | antimicrobial activity (S. aureus MNPE): comparably bacteriostatic and bactericidal | generation of resistant mutants (S. aureus): failed to generate resistant mutants | antimicrobial activity / growth inhibition (S. aureus MN8 [2]): inhibits the growth; also recorded: strong antimicrobial activity | antimicrobial activity / growth inhibition [3]: inhibits the growth; also recorded: strong antimicrobial activity | bactericidal concentration [3]: 50 µg/mL and 100 µg/mL | bacteriostatic concentration [3]: 25 µg/mL | antimicrobial activity (S. aureus CDC587): comparably bacteriostatic and bactericidal | bactericidal concentration (S. aureus MN8 [8]): ≥ 50 µg/mL | concentration of complete killing (S. aureus MN8 [8]): 200 µg/mL | difference in bactericidal concentration, anaerobic versus aerobic (S. aureus MN8 [8]): 4 fold | difference in concentration of complete killing, anaerobic versus aerobic (S. aureus MN8 [8]): 16 fold | growth inhibition when cultured aerobically compared to anaerobically (S. aureus MN8 [8]): more effective

CC1=C(C/C=C(\C)CCC[C@H](C)CCC[C@H](C)CCCC(C)C)C(=O)c2ccccc2C1=O [phylloquinone, reference compound]
antimicrobial activity / growth inhibition (B. anthracis Sterne): no antimicrobial activity | inhibition of TSST-1 production [5]: did not inhibit | inhibition of TSST-1 production [6]: did not inhibit | antimicrobial activity / growth inhibition [1]: no antimicrobial activity | inhibition of TSST-1 production [7]: did not inhibit | antimicrobial activity / growth inhibition (S. aureus MN8 [2]): no antimicrobial activity | antimicrobial activity / growth inhibition [3]: no antimicrobial activity
